Numbers after ± are expanded uncertainties.
Experiment: molar heat capacity at constant pressure
Conditions: Liquid, Flow calorimetry

CCCCCCCCCC(=O)OCC [ethyl decanoate]
Conditions	molar heat capacity at constant pressure [J/K/mol]
294 K, 100 kPa	400.39 ± 4
294 K, 3080 kPa	399.98 ± 4
294 K, 6090 kPa	399.53 ± 4
294 K, 8970 kPa	399.07 ± 4
294 K, 12120 kPa	398.72 ± 4
294.1 K, 14870 kPa	398.28 ± 4
294.1 K, 17910 kPa	397.82 ± 4
294.1 K, 21090 kPa	397.38 ± 4
294.1 K, 24040 kPa	396.93 ± 4
304 K, 130 kPa	406.09 ± 4.1
304 K, 3030 kPa	405.62 ± 4.1
304 K, 6160 kPa	405.12 ± 4.1
304 K, 9030 kPa	404.66 ± 4.1
304 K, 11950 kPa	404.19 ± 4.1
304 K, 15090 kPa	403.69 ± 4.1
304 K, 17870 kPa	403.23 ± 4.1
304.1 K, 21100 kPa	402.75 ± 4.1
304.1 K, 24050 kPa	402.24 ± 4.1
313.9 K, 110 kPa	411.45 ± 4.2
313.9 K, 2920 kPa	410.92 ± 4.2
313.9 K, 5990 kPa	410.45 ± 4.2
313.9 K, 9080 kPa	409.95 ± 4.1
314 K, 11910 kPa	409.43 ± 4.1
314 K, 15030 kPa	408.93 ± 4.1
314 K, 18090 kPa	408.41 ± 4.1
314 K, 21080 kPa	407.89 ± 4.1
314 K, 24110 kPa	407.34 ± 4.1
323.8 K, 150 kPa	416.54 ± 4.2
323.9 K, 3040 kPa	416.03 ± 4.2
323.9 K, 5930 kPa	415.53 ± 4.2
323.9 K, 9070 kPa	415.03 ± 4.2
323.9 K, 11980 kPa	414.54 ± 4.2
323.9 K, 15050 kPa	414.03 ± 4.2
324 K, 18050 kPa	413.54 ± 4.2
324 K, 21210 kPa	413.06 ± 4.2
324 K, 24030 kPa	412.57 ± 4.2
333.8 K, 120 kPa	423.19 ± 4.3
333.8 K, 2960 kPa	422.7 ± 4.3
333.8 K, 5990 kPa	422.28 ± 4.3
333.8 K, 9040 kPa	421.77 ± 4.3
333.9 K, 12030 kPa	421.17 ± 4.2
333.9 K, 14940 kPa	420.66 ± 4.2
333.9 K, 18050 kPa	420.15 ± 4.2
333.9 K, 21100 kPa	419.65 ± 4.2
334 K, 24050 kPa	419.11 ± 4.2
343.7 K, 150 kPa	429.52 ± 4.3
343.7 K, 3000 kPa	429.02 ± 4.3
343.7 K, 6190 kPa	428.5 ± 4.3
343.8 K, 8990 kPa	427.96 ± 4.3
343.8 K, 12100 kPa	427.46 ± 4.3
343.8 K, 14910 kPa	426.93 ± 4.3
343.8 K, 17990 kPa	426.4 ± 4.3
343.8 K, 21010 kPa	426.07 ± 4.3
343.9 K, 23970 kPa	425.54 ± 4.3
353.7 K, 110 kPa	435.96 ± 4.4
353.7 K, 2980 kPa	435.41 ± 4.4
353.7 K, 6020 kPa	434.91 ± 4.4
353.7 K, 8990 kPa	434.4 ± 4.4
353.8 K, 11920 kPa	433.87 ± 4.4
353.8 K, 14940 kPa	433.36 ± 4.4
353.8 K, 17960 kPa	432.85 ± 4.4
353.8 K, 21070 kPa	432.33 ± 4.4
353.9 K, 23980 kPa	431.81 ± 4.4

CCCCCCCC(=O)OCC [ethyl octanoate]
Conditions	molar heat capacity at constant pressure [J/K/mol]
294 K, 160 kPa	339.59 ± 3.4
294 K, 3020 kPa	339.17 ± 3.4
294.1 K, 5960 kPa	338.74 ± 3.4
294.1 K, 9040 kPa	338.3 ± 3.4
294.1 K, 12020 kPa	337.9 ± 3.4
294.1 K, 14980 kPa	337.54 ± 3.4
294.1 K, 17990 kPa	337.13 ± 3.4
294.1 K, 21060 kPa	336.71 ± 3.4
294.1 K, 23980 kPa	336.29 ± 3.4
303.7 K, 2940 kPa	344.3 ± 3.5
303.7 K, 6070 kPa	343.83 ± 3.5
303.8 K, 8950 kPa	343.35 ± 3.5
303.8 K, 12020 kPa	342.9 ± 3.5
303.9 K, 15040 kPa	342.5 ± 3.5
304 K, 18130 kPa	342.09 ± 3.5
304 K, 21050 kPa	341.67 ± 3.5
304 K, 24030 kPa	341.18 ± 3.5
305.6 K, 160 kPa	344.76 ± 3.5
314.3 K, 170 kPa	350.6 ± 3.5
314.3 K, 3140 kPa	350.17 ± 3.5
314.3 K, 6130 kPa	349.71 ± 3.5
314.4 K, 9110 kPa	349.29 ± 3.5
314.4 K, 12100 kPa	348.89 ± 3.5
314.4 K, 15030 kPa	348.53 ± 3.5
314.5 K, 18310 kPa	348.11 ± 3.5
314.5 K, 20910 kPa	347.72 ± 3.5
314.5 K, 24100 kPa	347.25 ± 3.5
323.8 K, 130 kPa	355.82 ± 3.6
323.8 K, 3030 kPa	355.4 ± 3.6
323.8 K, 6160 kPa	354.96 ± 3.6
323.8 K, 21030 kPa	352.89 ± 3.6
323.9 K, 9300 kPa	354.54 ± 3.6
323.9 K, 12120 kPa	354.09 ± 3.6
323.9 K, 15230 kPa	353.71 ± 3.6
323.9 K, 18110 kPa	353.28 ± 3.6
323.9 K, 24100 kPa	352.47 ± 3.6
333.7 K, 110 kPa	360.49 ± 3.6
333.7 K, 3060 kPa	360.06 ± 3.6
333.7 K, 6010 kPa	359.65 ± 3.6
333.8 K, 9110 kPa	359.17 ± 3.6
333.8 K, 11920 kPa	358.75 ± 3.6
333.8 K, 15070 kPa	358.37 ± 3.6
333.8 K, 18080 kPa	357.9 ± 3.6
333.9 K, 21120 kPa	357.47 ± 3.6
333.9 K, 24000 kPa	357.06 ± 3.6
343.5 K, 130 kPa	365.32 ± 3.7
343.5 K, 2950 kPa	364.93 ± 3.7
343.5 K, 6040 kPa	364.48 ± 3.7
343.5 K, 8990 kPa	364.02 ± 3.7
343.6 K, 12070 kPa	363.6 ± 3.7
343.7 K, 15050 kPa	363.15 ± 3.7
343.8 K, 18070 kPa	362.7 ± 3.7
343.8 K, 21010 kPa	362.3 ± 3.7
343.8 K, 24090 kPa	361.84 ± 3.7
353.6 K, 130 kPa	370.06 ± 3.7
353.6 K, 3030 kPa	369.66 ± 3.7
353.6 K, 6060 kPa	369.24 ± 3.7
353.7 K, 8990 kPa	368.8 ± 3.7
353.7 K, 11900 kPa	368.4 ± 3.7
353.8 K, 15040 kPa	367.99 ± 3.7
353.9 K, 18020 kPa	367.57 ± 3.7
354 K, 20960 kPa	367.14 ± 3.7
354 K, 24110 kPa	366.72 ± 3.7

Reference: the NIST ThermoML archive (doi:10.1021/acs.jced.8b00199)
